Test results reported in patent publication US11884686B2, “Chelate compounds” (priority 2016, dated 2024).
Entries after “also recorded” stand apart in the source; their conditions may differ.

Legend:
[1] = In vivo 54Mn biodistribution study in rats; conditions: rat; for % ID retained activity, Brain / % ID retained activity, Bladder / % ID retained activity, Blood / % ID retained activity, Heart / % ID retained activity, Kidney / % ID retained activity, Liver / % ID retained activity, Lungs / % ID retained activity, Muscle / % ID retained activity, Olfactory Bulb / % ID retained activity, Skin / % ID retained activity, Spleen / % ID retained activity, Tibia/Fibula / % ID retained activity, Femur / % ID retained activity, Pituitary Gland: 7 days post single iv 0.62 mmol/kg, LoD 0.002% ID (Prior Art, Chelate 4), 0.005% ID (Chelate 3); for % ID retained activity, Brain: ~30 μCi 54Mn; for in vivo stability from biodistribution profile: 7 days post single iv administration
Protocol: ^54Mn labeled chelates for biodistribution studies were prepared using the following method. To a 3 mL glass vial fitted with a magnetic stir bar was added the respective manganese containing chelate (1 mg) and 1.0 M ammonium formate, pH=4 (0.5 mL) (pH=5 for prior art Mn Chelate). ^54MnCl2 in 1.0 M HCl (˜500 μCi) was then added and the resulting solution was heated at 40° C. for 16 h. The resulting solution was purified via preparative HPLC to remove unchelated Mn. The radioactive fraction was collected and evaporated to dryness in vacuo. The radioactive residue was taken up in water containing non-radioactive Mn chelate (0.310 M) such that ˜30 μCi of radioactivity was formulated in a dose of 0.620 mmol Mn/kg with an injection volume of 2 mL/kg.
The experimental protocol conformed to the Guide for the Care and Use of Laboratory Animals and was approved by the IACUC at General Electric Global Research (Niskayuna, NY). Female Sprague-Dawley rats (130-150 g; Charles River Laboratories; Massachusetts; USA) were housed in standard cages, provided with ad libitum access to standard commercial food and water, and were maintained on an alternating 12-hr light-dark cycle in rooms with controlled temperature and humidity. Prior to injection of ^54Mn labelled chelates, rats were anesthetized via inhaled 3% Isoflurane (Piramal, NDC 66794-013-25; EZ-Anesthesia EZ700 Isoflurane Vaporizer, S/N 107). The injection site was prepped with alcohol wipes and a temporary 27 Ga catheter (Surflo SROX2419V) was placed in a tail vein. 30 μCi (0.74 MBq) of ^54Mn labelled chelate formulated with respective non-radioactive Mn(II) based chelate was dosed at 0.620 mmol non-radioactive Mn chelate/kg at an injection volume of 2 m L/kg was injected at a rate of 1 mL/min. Following injection animals were individually housed in wire bottom cages lined with filter paper until first urine void was collected. The rats were then cohoused in standard long term caging. 7 days post injection, the animals were sacrificed by CO2 immersion and organs and tissues of interest were removed and assayed for radioactivity using a Wizard 2480 gamma counter (Perkin Elmer, Beaconsfield, UK).
Naïve rats (Charles River Laboratories; Massachusetts; USA) received a single dose of 0.620 mmol/kg (approximately 30 μCi, 0.740 MBq) of test item via tail vein by injection. Additionally, one group of animals received osmolality matched saline (concentrated NaCl for injection: APP Pharmaceuticals part #NDC 63323-187-30 Lot #6008656 mixed with Sterile Water for Injection: Hospira part #NDC 0409-7990-09 Lot #49-396-DKas) as negative control (Table 1). After sacrifice, the organs and tissues were removed and assayed for residual radioactivity (i.e. ^54Mn organ retention) 7 days post single administration.

[2] = Water solubility of Mn(II) based chelates; assay type: physicochemical; conditions: thermodynamic from solid, 25° C.
Protocol: The solubility of Mn(II) based chelates was confirmed by dissolving purified Mn(II) based chelates ( 99% purity) in a prescribed volume of solvent (Millipore water 18.2 MegaOhm from a Millipore BioCell Benchtop unit) to provide a solution of given volume. Solutions were visually inspected for homogeneity and filtered through a 0.45 um PTFE filter membrane if necessary. The assessment was carried out at 25° C. Final sample concentrations were confirmed by determination of final Mn(II) concentration via ICP-MS (Spectro Arcos FHS[…] 10003910 or S/N 12006120).

1H NMRD profiles = assay type: physicochemical; conditions: 0.01 to 80 MHz, pH 6.9
Protocol: Both the longitudinal and transverse relaxation times were measured in human serum (BioreclamationIVT, Cat #HMSRM-M) to reflect the efficiency of the Mn(II) based chelates in an environment close to physiological. The relaxivity assessment was carried out at a concentration ranging from 5 to 0 mM Mn(II), at 40° C. using a Minispec Mq benchtop NMR relaxometer (Bruker Instruments, Rheinstetten, Germany) operating at 60 MHz (1.4 T) with an inversion recovery pulse sequence. The longitudinal and transverse relaxivities of the complexes (e.g., r1 and r2 respectively) were calculated by plotting the reciprocal of their relaxation time versus the manganese concentration as determined via ICP-MS (Spectro Arcos FHS12, S/N 10003910 or S/N 12006120) for each Mn(II) based chelates. The dependence of T1 by B0 (i.e., magnetic field) applied was assessed via the acquisition of ^1H Nuclear Magnetic Relaxation Dispersion (NMRD) profiles. […] The temperature was monitored by a VTC91 temperature control unit and maintained by a gas flow. The temperature was determined by previous calibration with a Pt resistance temperature probe. High field relaxivities were measured on a Bruker AVANCE NMR spectrometer at 400 MHz. […]

Row | SMILES | % ID retained activity, Brain [1] | % ID retained activity, Bladder [1] | % ID retained activity, Blood [1] | % ID retained activity, Heart [1] | % ID retained activity, Kidney [1] [% ID] | % ID retained activity, Liver [1] [% ID] | % ID retained activity, Lungs [1] | % ID retained activity, Muscle [1] | % ID retained activity, Olfactory Bulb [1] | % ID retained activity, Skin [1] | % ID retained activity, Spleen [1] | % ID retained activity, Tibia/Fibula [1] | in vivo stability from biodistribution profile [1] | solubility [2] [mM] | % ID retained activity, Femur [1] | % ID retained activity, Pituitary Gland [1] | 1H NMRD profile (1H NMRD profiles)
1 | CN(C[C@H](O)[C@@H](O)[C@H](O)[C@H](O)CO)C(=O)CCCN1CCN2Cc3cccc(n3)CN(CC1)C(CCC(=O)N(C)C[C@H](O)[C@@H](O)[C@H](O)[C@H](O)CO)C(=O)[O][Mn][O]C(=O)C2CCC(=O)N(C)C[C@H](O)[C@@H](O)[C@H](O)[C@H](O)CO (stereo partly shown) [Mn Chelate 3] | within endogenous level variability and LOD | ≤LOD | ≤LOD | ≤LOD | 0.026 ± 0.005 | 0.091 ± 0.017 | ≤LOD | ≤LOD | ≤LOD | ≤LOD | ≤LOD | ≤LOD | improved stability compared to the prior art Mn Chelate | > 500 | – | – | –
2 | CN1CCN2Cc3cccc(n3)CN(CC1)C(CCC(=O)N(C)C[C@H](O)[C@@H](O)[C@H](O)[C@H](O)CO)C(=O)[O][Mn][O]C(=O)C2CCC(=O)N(C)C[C@H](O)[C@@H](O)[C@H](O)[C@H](O)CO (stereo partly shown) [Mn Chelate 4] | – | ≤LOD | ≤LOD | ≤LOD | 0.038 ± 0.017 | 0.075 ± 0.011 | ≤LOD | ≤LOD | ≤LOD | ≤LOD | ≤LOD | ≤LOD | improved stability compared to the prior art Mn Chelate | > 500 | ≤LOD | ≤LOD | only one dispersion in the profile around 1 MHz; also recorded: small r1 hump in the frequency region between 60 and 80 MHz
3 | CN1CCN2CC(=O)[O][Mn][O]C(=O)CN(CC1)Cc1cccc(n1)C2 [Prior Art Mn Chelate, reference compound] | 0.007 ± 0.002% ID | ≤LOD | ≤LOD | ≤LOD | 0.012 ± 0.002 | 0.072 ± 0.017 | ≤LOD | ≤LOD | ≤LOD | ≤LOD | ≤LOD | 0.002 ± 0.000% ID | – | > 500 | 0.003 ± 0.001% ID | ≤LOD | only one dispersion in the profile around 1 MHz
